Experimental data as given in paper PMC12040169 (PLOS Biology, 2025).

Test: in vitro
Conditions: human, hela cells, % viability

| Compound | viability at 28.5 h, 10 µM |
| --- | --- |
| O=C(O)/C(O)=C/C(=O)c1ccc(Cl)cc1 [CBK261841] | 111% |
| Cc1ccc(C(=O)NNC(=O)/C=C\C(=O)O)cc1 [CBK261842] | 86.9% |
| O=C1OC(c2ccc(N3C(=O)c4cccc5cccc(c45)C3=O)cc2)(c2ccc(N3C(=O)c4cccc5cccc(c45)C3=O)cc2)c2ccccc21 [CBK261845] | 95.3% |
| CN1CCN(c2ccc([N+](=O)[O-])c(NCCCO)c2)CC1 [CBK261846C] | 86.5% |
| O=c1[nH]cc(COCc2ccccc2)c(=O)[nH]1 [CBK261847] | 94% |
| COc1ccc(CN2CCC(N3CCCCC3)CC2)c(OC)c1 [CBK261848] | 103% |
| COc1ccc(O)c(CN2CCC(N3CCCCC3)CC2)c1 [CBK261849] | 94.9% |
| COc1cc(CN(C)Cc2cccc3ccccc23)c([N+](=O)[O-])cc1OC [CBK261850] | 89.3% |
| COc1cc([N+](=O)[O-])cc(CN2CCN(CCO)CC2)c1O [CBK261851] | 92.4% |
| O=[N+]([O-])c1ccccc1CN1CCC(N2CCCCC2)CC1 [CBK261852] | 88.7% |
| COc1ccc(CN2CC=C(c3ccc(F)cc3)CC2)cc1OCc1ccccc1 [CBK261853] | 96.1% |
| FC(F)(F)c1cccc(CN2CCC(N3CCCCC3)CC2)c1 [CBK261855] | 90.1% |
| CN(C)CCN(C)Cc1ccc2c(c1)Cc1ccccc1-2 [CBK261856] | 93.3% |
| CN(Cc1cccc(Oc2ccccc2)c1)Cc1cccc2ccccc12 [CBK261857] | 96.9% |
| COc1cc(CN2CCC(N3CCCCC3)CC2)c([N+](=O)[O-])cc1OC [CBK261858] | 93.3% |
| CN(C)CCN(C)Cc1ccc2ccc3cccc4ccc1c2c34 [CBK261860] | 103% |
| CC1CCCN(Cc2ccccc2[N+](=O)[O-])C1 (centres unmarked) [CBK261862] | 102% |
| O=[N+]([O-])c1ccccc1/C=C/CN1CCN(CCO)CC1 [CBK261863] | 85.8% |
| c1ccc(COc2ccc(CN3CCN(c4ccccn4)CC3)cc2)cc1 [CBK261865] | 89.3% |
| O=[N+]([O-])c1ccc(CN(CCc2ccccc2)Cc2ccccc2)cc1 [CBK261866] | 99.2% |
| COc1cc(CN2CCN(c3cc(C)ccc3C)CC2)cc([N+](=O)[O-])c1O [CBK261868] | 95.5% |
| CCOC(=O)CN(C)Cc1c[nH]c2ccccc12 [CBK261869] | 107% |
| c1ccc(Oc2cccc(CN3CCOCC3)c2)cc1 [CBK261870] | 95.3% |

| Compound | viability at 28.5 h, 10 µM |
| --- | --- |
| CC(CCN(C)CCN(C)C)c1ccccc1 (centres unmarked) [CBK261871] | 87.6% |
| OCCN1CCN(CCCc2ccccc2)CC1 [CBK261872] | 86% |
| OCCN(CCO)CC1CC2C=CC1C2 (centres unmarked) [CBK261874] | 105% |
| CN(C)CCN(C)Cc1ccccc1O [CBK261875] | 103% |
| CCN(CCN(C)C)Cc1ccc(F)cc1F [CBK261877] | 93.1% |
| CN(Cc1ccccc1)Cc1ccccc1O [CBK261879] | 92.4% |
| OCCN(Cc1ccccc1)Cc1ccc(-c2ccccc2)cc1 [CBK261883] | 102% |
| CCN(Cc1ccccc1)Cc1ccco1 [CBK261884] | 111% |
| NC(=O)C1CCN(Cc2cc3c(cc2[N+](=O)[O-])OCO3)CC1 [CBK261885] | 91.7% |
| OCCN(CCO)Cc1c(Cl)cccc1Cl [CBK261887] | 93% |
| COc1ccc(CN2CCN(c3ccccn3)CC2)cc1OCc1ccccc1 [CBK261889] | 84.9% |
| CCOC(=O)CN(C)Cc1ccccc1Br [CBK261891] | 108% |
| C(=C\c1ccccc1)/CN1CCN(CCc2ccccc2)CC1 [CBK261893] | 93.4% |
| O=[N+]([O-])c1ccc(N2CCN(C/C=C/c3ccccc3[N+](=O)[O-])CC2)cc1 [CBK261895] | 95% |
| C(=C\c1ccccc1)/CN1CCN(CCCc2ccccc2)CC1 [CBK261897] | 90% |
| COc1ccc2ccccc2c1CN1CCN(C/C=C/c2ccccc2)CC1 [CBK261899] | 108% |
| CCn1c2ccccc2c2cc(CN(C)Cc3ccccc3)ccc21 [CBK261901] | 94.1% |
| CN1CCC(N(C)C/C(Cl)=C/c2ccccc2)CC1 [CBK261903] | 92.1% |
| COc1cc(CN2CCN(c3ccccn3)CC2)ccc1OCc1ccccc1 [CBK261906] | 88.8% |
| C(=C\c1ccccc1)/CN1CCN(c2ncccn2)CC1 [CBK261909] | 92.3% |
| CCN1CCN(Cc2ccc(OC)c(OCc3ccccc3)c2)CC1 [CBK261910] | 89.4% |
| COc1cc(CN2CCC(C)CC2)c([N+](=O)[O-])cc1OC [CBK261911] | 90% |
| COc1ccc(CN(C)CCN(C)C)c(O)c1 [CBK261915] | 114% |

| Compound | viability at 28.5 h, 10 µM |
| --- | --- |
| CN(C1CCCCC1)C1CCN(CCc2ccccc2)CC1 [CBK261918] | 97.5% |
| OCCN(CCO)Cc1ccc(Cl)c(Cl)c1 [CBK261919] | 88.1% |
| COc1ccc(CCC(C)N2CCN(c3ccc(F)cc3)CC2)cc1 (centres unmarked) [CBK261922] | 103% |
| CN(C)CC(C)(C)CNC1CCN(C)CC1 [CBK261926] | 95.2% |
| CN(C)CCN(Cc1ccccc1)Cc1ccc(C(F)(F)F)cc1 [CBK261927] | 120% |
| CN(C)CCN(Cc1ccccc1)Cc1ccc([N+](=O)[O-])cc1 [CBK261929] | 87.8% |
| CSc1ccc(CN(CCO)CCO)cc1 [CBK261931] | 98.6% |
| CCCN1CCC(NC(C)CCCC(C)(C)O)CC1 (centres unmarked) [CBK261932] | 99.3% |
| CC(CCc1ccccc1)N(C)CCN(C)C (centres unmarked) [CBK261933] | 80.5% |
| CCCN1CCC(NCC(C)(C)CN(C)C)CC1 [CBK261934] | 89.3% |
| CCCN1CCC(N(C)CCN(CC)CC)CC1 [CBK261935] | 104% |
| FC(F)(F)c1ccc2c(c1)N(CCCN1CCN(C34CC5CC(CC(C5)C3)C4)CC1)c1ccccc1S2 [CBK261938] | 102% |
| O=C(O)CCCCCNS(=O)(=O)c1ccc(Cl)cc1 [CBK261940] | 81.4% |
| CC1(C)CC(O[Si](C)(C)OC2CC(C)(C)NC(C)(C)C2)CC(C)(C)N1 [CBK261942] | 99.3% |
| COc1ccc(C(=O)Nc2ccc3oc(-c4cccc(C)c4)nc3c2)cc1Br [CBK261944] | 100% |
| Cc1cc(Cl)ccc1NC(=O)CCC(=O)N/N=C/c1cccnc1 [CBK261945] | 100% |
| C/C(=N\NC(=O)CCC(=O)Nc1ccccc1C)c1ccc(O)cc1O [CBK261946] | 94.2% |
| CCN(CC)Cc1c(O)ccc2occ(C(=O)c3cc(OC)ccc3OC)c12 [CBK261949] | 97% |
| CC1(C)CC(=NNC(=O)CCc2cc(C(C)(C)C)c(O)c(C(C)(C)C)c2)CC(C)(C)N1 [CBK261952] | 108% |
| C(#Cc1ccc(-c2nc(-c3ccc(Sc4ccccc4)cc3)c(-c3ccc(Sc4ccccc4)cc3)[nH]2)cc1)c1ccccc1 [CBK261954] | 95.3% |
| O=C(N/N=C/c1cccc(Oc2ccccc2)c1)c1ccncc1 [CBK261955] | 95.6% |
| CC1(C)CC(NC(=O)CN2CCCCC2)CC(C)(C)N1 [CBK261956] | 92.4% |
| CN(C)Cc1c(O)ccc2occ(C(=O)c3cccs3)c12 [CBK261959C] | 103% |

| Compound | viability at 28.5 h, 10 µM |
| --- | --- |
| O=C(N/N=C\C=C\c1ccco1)c1ccc([N+](=O)[O-])cc1 [CBK261961] | 102% |
| c1ccc(-c2nc3ccc(Oc4ccc5nc(-c6ccccn6)c(-c6ccccn6)nc5c4)cc3nc2-c2ccccn2)nc1 [CBK261964] | 99.6% |
| CN(C)Cc1c(O)ccc2occ(C(=O)c3ccccc3)c12 [CBK261965] | 94% |
| Clc1ccc(-c2ccc(/C=N/c3ccc4oc(-c5ccccc5)nc4c3)o2)cc1 [CBK261969] | 102% |
| C/C(=N\NC(=O)CCC(=O)Nc1ccc(I)cc1)c1ccc(O)cc1O [CBK261971] | 89.9% |
| Cc1ccc(S(=O)(=O)N=C2NCN(C)CN2)cc1 [CBK261972] | 94.3% |
| O=C(O)CC(Cc1ccc(Cl)cc1)C(=O)Nc1ccc([N+](=O)[O-])cc1 (centres unmarked) [CBK261973] | 89.7% |
| Cc1cc(Cl)ccc1NC(=O)CCC(=O)N/N=C/c1ccc(O)cc1 [CBK261974] | 89.6% |
| c1ccc(-c2nc3ccc(Cc4ccc5nc(-c6ccccn6)c(-c6ccccn6)nc5c4)cc3nc2-c2ccccn2)nc1 [CBK261975] | 101% |
| N/N=C1\C2CN3CCN(C2)CC1(Cc1ccccc1)C3 [CBK261977] | 91.8% |
| CN(Cc1cc(C(C)(C)C)c(O)c(C(C)(C)C)c1)Cc1cc(C(C)(C)C)c(O)c(C(C)(C)C)c1 [CBK261980] | 97% |
| COc1ccc(/C=N/NS(C)(=O)=O)cc1 [CBK261981] | 108% |
| COc1ccc(/C=N/Nc2ccc([N+](=O)[O-])cc2)c(C(=O)O)c1OC [CBK261984] | 90.5% |
| CC1(C)CC(N2CN(C3CC(C)(C)NC(C)(C)C3)CN(C3CC(C)(C)NC(C)(C)C3)C2)CC(C)(C)N1 [CBK261985] | 90.8% |
| O=C(CNC(=O)c1ccc2c(c1)OCCO2)N/N=C/c1cccs1 [CBK261987] | 86.5% |
| Nc1nonc1-n1nnc(C(=O)N/N=C/c2ccc([N+](=O)[O-])cc2)c1-c1ccccc1 [CBK261992] | 86.4% |
| CN(C)CCCn1cccc1C=O [CBK261993G] | 90.3% |
| Oc1c(CN2CCN(Cc3ccc4cccnc4c3O)CC2)ccc2cccnc12 [CBK261994] | 86.1% |
| CCCNc1nc(Cl)nc(NCc2cccnc2)n1 [CBK261995] | 89% |
| O=C(O)CC(NC=C1C(=O)CCCC1=O)C(=O)O (centres unmarked) [CBK261997] | 85.2% |
| CC(C)(C)c1cc(CCCOC(=O)CNC2CCCCC2)cc(C(C)(C)C)c1O [CBK261998] | 89.4% |
| COc1ccc(OCCOCCN2CCOCC2)cc1 [CBK261999] | 91.3% |

Same assay, conditions: human, hela cells, % viability, bulk resorufin, single well

| Compound | viability at 28.5 h, 10 µM |
| --- | --- |
| COc1cc(Br)cc(CN2CCN(Cc3ccccc3)CC2)c1O [CBK261880] | 108% |
